Earlier results, collected in patent US20140315870A1, “COMPOSITION COMPRISING A GLUCOCORTICOID AND A THIAZOLIDINEDIONE FOR INDUCING COMPELTE ADIPOGENIC DIFFERENTIATION OF MAMMALIAN STEM CELLS” (UNIVERSIDAD DEL DESARROLLO, priority 2011, published 2014).

Settings: chronic consumption in humans

Structure (SMILES): CN(CCOc1ccc(CC2SC(=O)NC2=O)cc1)c1ccccn1 (stereo not shown) [rosiglitazone]
- increase in the chance for cardiovascular accidents: 50%
